US20250032485A1, “APPLICATION OF IMIDAZO [1,2-A] PYRAZINE COMPOUNDS OR THEIR PHARMACEUTICALLY ACCEPTABLE SALTS IN THE PREPARATION OF ANTI-CORONAVIRUS DRUGS” (GUANGZHOU MEDICAL UNIVERSITY, priority 2023, published 2025)

Biological target: PLpro of SARS-CoV-2 (Severe acute respiratory syndrome coronavirus 2, UniProt P0DTD1)
Test: Enzyme activity test in vitro: inhibition of PLpro at fixed concentration 50 μM (RLRGG-AMC substrate)
Format: biochemical
Settings: read-out: Inhibition rate at 50 μM (%)

CCNC(=O)c1cccc(Nc2c(-c3ccc(Cl)cc3)nc3cnccn23)c1 [P22456, 3-[[2-(4-chlorophenyl)imidazo[1,2-a]pyrazin-3-yl]amino]-N-ethylbenzamide] gave an inhibition at 50 µM of 30.3%.

Compound CN(C)CCNC(=O)c1cccc(Nc2c(-c3ccc(Cl)cc3)nc3cnccn23)c1 [P22457, 3-[[2-(4-chlorophenyl)imidazo[1,2-a]pyrazin-3-yl]amino]-N-[2-(dimethylamino)ethyl]benzamide] has an inhibition at 50 µM of 38.6%.

Compound O=C(c1cccc(Nc2c(-c3ccccc3)nc3cnccn23)c1)N1CCCCC1 [P22458, [3-[(2-phenylimidazo [1,2-a]pyrazin-3-yl)amino]phenyl]-piperidin-1-ylmethanone] has an inhibition at 50 µM of 35.5%.

For COc1ccc(-c2nc3cnccn3c2Nc2cccc(C(=O)NCc3ccco3)c2)cc1 [P22459, N-(furan-2-ylmethyl)-3-[[2-(4-methoxy-phenyl)imidazo[1,2-a]pyrazin-3-yl]amino]benzamide], the inhibition at 50 µM was 35.4%.

In the case of COc1ccc(-c2nc3cnccn3c2Nc2ccc(C(=O)N3CCCCC3)cc2)cc1OC [P22460, [4-[[2-(3,4-dimethoxy-phenyl)imidazo[1,2-a]pyrazin-3-yl]amino]phenyl]-piperidin-1-ylmethanone], the inhibition at 50 µM is reported as 31.8%.

CCNC(=O)c1ccc(Nc2c(-c3ccccc3)nc3cnccn23)cc1 [P22461, N-ethyl-4-[(2-phenyl-imidazo[1,2-a]pyrazin-3-yl)amino] benzamide] gave an inhibition at 50 µM of 32.3%.

With CSc1ccc(-c2nc3cnccn3c2Nc2ccc(C(=O)NC(C)C)cc2)cc1 [P22462, 4-[[2-(4-methyl-sulfanylphenyl)imidazo [1,2-a]pyrazin-3-yl]amino]-N-propan-2-ylbenzamide] the inhibition at 50 µM was 40.7%.

For O=C(NCC1CCCO1)c1ccc(Nc2c(-c3ccccc3)nc3cnccn23)cc1 (stereo not drawn) [P22463, N-(oxolan-2-ylmethyl)-4-[(2-phenylimidazo [1,2-a]pyrazin-3-yl)amino]benzamide], the inhibition at 50 µM was 25.8%.

Compound Cc1ccc(-c2nc3cnccn3c2Nc2ccc(C(=O)N3CCCCC3)cc2)cc1 [P22464, [4-[[2-(4-methyl-phenyl)imidazo[1,2-a]pyrazin-3-yl]amino]phenyl]-piperidin-1-ylmethanone] has an inhibition at 50 µM of 29.6%.

Compound CSc1ccc(-c2nc3cnccn3c2Nc2ccc(C(=O)NCc3ccco3)cc2)cc1 [P22465, N-(furan-2-ylmethyl)-4-[[2-(4-methyl-sulfanylphenyl)imidazo [1,2-a]pyrazin-3-yl]amino]benzamide] has an inhibition at 50 µM of 29.6%.

CCNC(=O)c1cccc(Nc2c(-c3ccc(SC)cc3)nc3cnccn23)c1 [P22466, N-ethyl-3-[[2-(4-methylsulfanylphenyl)imidazo[1,2-a]pyrazin-3-yl]amino] benzamide] was tested, and the inhibition at 50 µM was 22.2%.

CSc1ccc(-c2nc3cnccn3c2Nc2cccc(C(=O)NCCN(C)C)c2)cc1 [P22467, N-[2-(dimethylamino)ethyl]-3-[[2-(4-methylsulfanylphenyl)imidazo[1,2-a]pyrazin-3-yl]amino] benzamide] gave an inhibition at 50 µM of 29.8%.

With O=C(c1cccc(Nc2c(-c3ccc(Cl)cc3)nc3cnccn23)c1)N1CCCCC1 [P22468, [3-[[2-(4-chlorophenyl)imidazo[1,2-a]pyrazin-3-yl]amino]phenyl]-piperidin-1-ylmethanone] the inhibition at 50 µM was 29%.

For O=C(NCc1ccco1)c1cccc(Nc2c(-c3ccc(Cl)cc3)nc3cnccn23)c1 [P22469, 3-[[2-(4-chlorophenyl)imidazo[1,2-a]pyrazin-3-yl]amino]-N-(furan-2-ylmethyl) benzamide], the inhibition at 50 µM was 40.5%.

In the case of COc1ccc(-c2nc3cnccn3c2Nc2ccc(C(=O)N3CCOCC3)cc2)cc1OC [P22470, [4-[[2-(3,4-dimethoxy-phenyl)imidazo[1,2-a]pyrazin-3-yl]amino]phenyl]-morpholin-4-ylmethanone], the inhibition at 50 µM is reported as 32.1%.

O=C(NCCN1CCOCC1)c1ccc(Nc2c(-c3ccccc3)nc3cnccn23)cc1 [P22472, N-(2-morpholin-4-ylethyl)-4-[(2-phenyl-imidazo[1,2-a]pyrazin-3-yl)amino] benzamide] gave an inhibition at 50 µM of 33%.

Compound COc1ccc(-c2nc3cnccn3c2Nc2ccc(C(=O)NCC3CCCO3)cc2)cc1 (stereo not drawn) [P22473, 4-[[2-(4-methoxy-phenyl)imidazo[1,2-a]pyrazin-3-yl]amino]-N-(oxolan-2-ylmethyl) benzamide] has an inhibition at 50 µM of 36.8%.

Work on O=C(c1ccc(Nc2c(-c3ccccc3)nc3cnccn23)cc1)N1CCOCC1 [P22474, morpholin-4-yl-[4-[(2-phenylimidazo [1,2-a]pyrazin-3-yl)amino]phenyl] methanone] yielded an inhibition at 50 µM of 35.3%.

Compound CC(C)NC(=O)c1cccc(Nc2c(-c3ccccc3)nc3cnccn23)c1 [P22476, 3-[(2-phenylimidazo [1,2-a]pyrazin-3-yl)amino]-N-propan-2-ylbenzamide] has an inhibition at 50 µM of 29%.

For O=C(NCC1CCCO1)c1cccc(Nc2c(-c3ccccc3)nc3cnccn23)c1 (stereo not drawn) [P22477, N-(oxolan-2-ylmethyl)-3-[(2-phenylimidazo [1,2-a]pyrazin-3-yl)amino]benzamide], the inhibition at 50 µM was 41%.

With CSc1ccc(-c2nc3cnccn3c2Nc2cccc(C(=O)N3CCCCC3)c2)cc1 [P22478, [3-[[2-(4-methyl-sulfanylphenyl)imidazo [1,2-a]pyrazin-3-yl]amino]phenyl]-piperidin-1-ylmethanone] the inhibition at 50 µM was 43.9%.

Compound COc1ccc(-c2nc3cnccn3c2Nc2ccc(C(=O)NCc3ccco3)cc2)cc1OC [P22480, 4-[[2-(3,4-dimethoxy-phenyl)imidazo[1,2-a]pyrazin-3-yl]amino]-N-(furan-2-ylmethyl)benzamide] has an inhibition at 50 µM of 40.6%.

In the case of O=C(NC1CCCCC1)c1cccc(Nc2c(-c3ccc(F)cc3)nc3cnccn23)c1 [P22481, N-cyclohexyl-3-[[2-(4-fluorophenyl)imidazo[1,2-a]pyrazin-3-yl]amino] benzamide], the inhibition at 50 µM is reported as 11.8%.

CCOC(=O)c1ccc(Nc2c(-c3ccc(C)cc3)nc3cnccn23)cc1 [P22482, ethyl 4-[[2-(4-methylphenyl)imidazo[1,2-a]pyrazin-3-yl]amino] benzoate] showed an inhibition at 50 µM of 22.2%.

CCOC(=O)c1ccc(Nc2c(-c3ccccc3)nc3cnccn23)cc1 [P22483, ethyl 4-[(2-phenylimidazo [1,2-a]pyrazin-3-yl)amino]benzoate] gave an inhibition at 50 µM of 29.4%.

In the case of COC(=O)c1ccc(-c2nc3cnccn3c2Nc2ccc(OC)c(OC)c2)cc1 [P22491, methyl 4-[3-(3,4-dimethoxy-anilino)imidazo[1,2-a]pyrazin-2-yl] benzoate], the inhibition at 50 µM is reported as 22.4%.

For CCOC(=O)c1ccc(Nc2c(-c3ccc(Cl)cc3)nc3cnccn23)cc1 [P22492, ethyl 4-[[2-(4-chlorophenyl)imidazo[1,2-a]pyrazin-3-yl]amino] benzoate], the inhibition at 50 µM was 29.5%.

In the case of O=C(O)c1ccc(Nc2c(-c3cccc(Cl)c3)nc3cnccn23)cc1 [P22493, 4-[[2-(3-chlorophenyl)imidazo[1,2-a]pyrazin-3-yl]amino] benzoic acid], the inhibition at 50 µM is reported as 13.2%.

CCc1cccc(C)c1Nc1c(-c2ccc(C(=O)NC)cc2)nc2cnccn12 [P22501, 4-[3-(2-ethyl-6-methyl-anilino)imidazo [1,2-a]pyrazin-2-yl]-N-methyl-benzamide] was tested, and the inhibition at 50 µM was 28.7%.

In the case of CCOC(=O)c1ccc(Nc2c(-c3ccc(N(C)C)cc3)nc3cnccn23)cc1 [P22502, ethyl 4-[[2-[4-(dimethyl-amino)phenyl]imidazo [1,2-a]pyrazin-3-yl]amino]benzoate], the inhibition at 50 µM is reported as 14.4%.

O=C(O)c1ccc(Nc2c(-c3cc(Br)ccc3O)nc3cnccn23)cc1 [P22503, 4-[[2-(5-bromo-2-hydroxyphenyl)imidazo [1,2-a]pyrazin-3-yl]amino]benzoic acid] was tested, and the inhibition at 50 µM was 27.6%.

Work on CCNC(=O)c1ccc(-c2nc3cnccn3c2Nc2c(C)cccc2CC)cc1 [P22511, N-ethyl-4-[3-(2-ethyl-6-methylanilino)imidazo[1,2-a]pyrazin-2-yl]benzamide] yielded an inhibition at 50 µM of 27.7%.

Work on CCOC(=O)c1ccc(Nc2c(-c3ccccc3O)nc3cnccn23)cc1 [P22512, ethyl 4-[[2-(2-hydroxy-phenyl)imidazo[1,2-a]pyrazin-3-yl]amino] benzoate] yielded an inhibition at 50 µM of 26.9%.

With CCc1cccc(C)c1Nc1c(-c2ccc(NC(C)=O)cc2)nc2cnccn12 [P22513, N-[4-[3-(2-ethyl-6-methylanilino)imidazo [1,2-a]pyrazin-2-yl]phenyl]acetamide] the inhibition at 50 µM was 21.9%.

With CCOC(=O)c1ccc(Nc2c(-c3ccc(C(=O)OC)cc3)nc3cnccn23)cc1 [P22521, methyl 4-[3-(4-ethoxy-carbonylanilino)imidazo[1,2-a]pyrazin-2-yl]benzoate] the inhibition at 50 µM was 22%.

Work on CCOC(=O)c1ccc(Nc2c(-c3cccc(Cl)c3)nc3cnccn23)cc1 [P22522, ethyl 4-[[2-(3-chlorophenyl)imidazo[1,2-a]pyrazin-3-yl]amino] benzoate] yielded an inhibition at 50 µM of 32.3%.

In the case of CCOC(=O)c1ccc(Nc2c(-c3ccc(OC)cc3)nc3cnccn23)cc1 [P22531, ethyl 4-[[2-(4-methoxy-phenyl)imidazo[1,2-a]pyrazin-3-yl]amino] benzoate], the inhibition at 50 µM is reported as 31.9%.

Compound CCOC(=O)c1ccc(Nc2c(-c3cccc(Br)c3)nc3cnccn23)cc1 [P22532, ethyl 4-[[2-(3-bromophenyl)imidazo[1,2-a]pyrazin-3-yl]amino] benzoate] has an inhibition at 50 µM of 24.2%.

In the case of CCOC(=O)c1ccc(Nc2c(-c3ccc(SC)cc3)nc3cnccn23)cc1 [P22541, ethyl 4-[[2-(4-methyl-sulfanylphenyl)imidazo [1,2-a]pyrazin-3-yl]amino]benzoate], the inhibition at 50 µM is reported as 33.8%.

In the case of CCOC(=O)c1ccc(Nc2c(-c3cc(Br)ccc3O)nc3cnccn23)cc1 [P22542, ethyl 4-[[2-(5-bromo-2-hydroxyphenyl)imidazo [1,2-a]pyrazin-3-yl]amino]benzoate], the inhibition at 50 µM is reported as 31.5%.

Work on CCOC(=O)c1ccc(Nc2c(-c3ccc(O)c(OC)c3)nc3cnccn23)cc1 [P22551, ethyl 4-[[2-(4-hydroxy-3-methoxyphenyl)imidazo[1,2-a]pyrazin-3-yl]amino]benzoate] yielded an inhibition at 50 µM of 21%.

CCOC(=O)c1ccc(Nc2c(-c3cccc(O)c3)nc3cnccn23)cc1 [P22552, ethyl 4-[[2-(3-hydroxy-phenyl)imidazo[1,2-a]pyrazin-3-yl]amino] benzoate] gave an inhibition at 50 µM of 19.9%.
